Measured values: US6172066A, “Dihydropyrimidines and uses thereof” (Synaptic Pharmaceutical Corporation, priority 1997, dated 2001)
Counter-ions that a name gives are not always drawn.

Tests used:
[1] = target: T1, α1D Human Adrenergic Receptor (Homo sapiens, UniProt P25100); assay: Radioligand binding, [3H]prazosin displacement, cloned human α1D receptor (LM(tk-) cell membranes); conditions: [3H]prazosin 0.5 nM, 37° C., 20 min; for Ki: read-out: hα1D pKi (converted)
T1 construct: The entire coding region of α1D (1719 bp); expressed in transfected cells
T1 sequence (P25100 1-572): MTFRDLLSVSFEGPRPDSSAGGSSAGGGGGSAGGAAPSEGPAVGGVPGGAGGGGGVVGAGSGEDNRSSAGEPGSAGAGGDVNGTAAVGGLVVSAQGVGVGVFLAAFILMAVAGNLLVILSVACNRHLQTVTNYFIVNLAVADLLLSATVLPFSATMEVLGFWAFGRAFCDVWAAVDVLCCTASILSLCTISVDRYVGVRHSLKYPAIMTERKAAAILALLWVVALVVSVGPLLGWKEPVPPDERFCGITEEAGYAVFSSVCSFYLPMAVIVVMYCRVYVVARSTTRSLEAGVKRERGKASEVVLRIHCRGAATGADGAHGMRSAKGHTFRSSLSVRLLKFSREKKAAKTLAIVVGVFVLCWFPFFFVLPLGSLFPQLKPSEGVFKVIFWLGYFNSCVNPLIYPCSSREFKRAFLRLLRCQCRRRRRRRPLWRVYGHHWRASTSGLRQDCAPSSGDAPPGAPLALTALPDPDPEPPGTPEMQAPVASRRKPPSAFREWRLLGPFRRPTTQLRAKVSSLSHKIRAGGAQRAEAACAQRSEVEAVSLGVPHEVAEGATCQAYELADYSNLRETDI
Procedure: (§1) The activity of compounds at the different human receptors was determined in vitro using cultured cell lines that selectively express the receptor of interest. These cell lines were prepared by transfecting the cloned cDNA or cloned genomic DNA or constructs containing both genomic DNA and cDNA encoding the human α-adrenergic receptors as follows:
The entire coding region of α1D (1719 bp), including 150 base pairs of 5' untranslated sequence (5' UT) and 300 bp of 3' untranslated sequence (3' UT), was cloned into the BamHI and ClaI sites of the polylinker-modified eukaryotic expression vector pCEXV-3, called EXJ.HR. The construct involved the ligation of partial overlapping human lymphocyte genomic and hippocampal cDNA clones: 5' sequence were contained on a 1.2 kb SmaI-XhoI genomic fragment (the vector-derived BamHI site was used for subcloning instead of the internal insert-derived SmaI site) and 3' sequences were contained on an 1.3 kb XhoI-ClaI cDNA fragment (the ClaI site was from the vector polylinker). Stable cell lines were obtained by cotransfection with the plasmid α1A/EXJ (expression vector containing the α1A receptor gene (old nomenclature)) and the plasmid pGCcos3neo (plasmid containing the aminoglycoside transferase gene) into LM(tk-) cells using calcium phosphate technique. The cells were grown, in a controlled environment (37° C., 5% CO2), as monolayers in Dulbecco's modified Eagle's Medium (GIBCO, Grand Island, N.Y.) containing 25 mM glucose and supplemented with 10% bovine calf serum, 100 units/ml penicillin g, and 100 μg/ml streptomycin sulfate. Stable clones were then selected for resistance to the antibiotic G-418 (1 mg/ml), and membranes were harvested and assayed for their ability to bind [^3 H]prazosin as described below (see "Radioligand Binding assays").
The cell line expressing the human α1D receptor used herein was designated L-α1A (old nomenclature) and was deposited with the American Type Culture Collection, 12301 Parklawn Drive, Rockville, Md. 20852, U.S.A. under the provisions of the Budapest Treaty for the International Recognition of the Deposit of Microorganisms for the Purposes of Patent Procedure. The cell line expressing the human α1D receptor, was accorded ATCC Accession No. CRL 11138, and was deposited on Sep. 25, 1992.
(§2) Transfected cells from culture flasks were scraped into 5 ml of 5 mM Tris-HCl, 5 mM EDTA, pH 7.5, and lysed by sonication. The cell lysates were centrifuged at 1000 rpm for 5 min at 4° C., and the supernatant was centrifuged at 30,000×g for 20 min at 4° C. The pellet was suspended in 50 mM Tris-HCl, 1 mM MgCl2, and 0.1% ascorbic acid at pH 7.5. Binding of the α1 antagonist [^3 H]prazosin (0.5 nM, specific activity 76.2 Ci/mmol) to membrane preparations of LM(tk-) cells was done in a final volume of 0.25 ml and incubated at 37° C. for 20 min. Nonspecific binding was determined in the presence of 10 μM phentolamine. The reaction was stopped by filtration through GF/B filters using a cell harvester. Inhibition experiments, routinely consisting of 7 concentrations of the tested compounds, were analyzed using a non-linear regression curve-fitting computer program to obtain Ki values.

[2] = target: T2, α1B Human Adrenergic Receptor (Homo sapiens, UniProt P35368); assay: Radioligand binding, [3H]prazosin displacement, cloned human α1B receptor (LM(tk-) cell membranes); conditions: [3H]prazosin 0.5 nM, 37° C., 20 min; for Ki: read-out: hα1B pKi (converted)
T2 construct: The entire coding region of a1B (1563 bp); expressed in transfected cells
T2 sequence (P35368 1-520): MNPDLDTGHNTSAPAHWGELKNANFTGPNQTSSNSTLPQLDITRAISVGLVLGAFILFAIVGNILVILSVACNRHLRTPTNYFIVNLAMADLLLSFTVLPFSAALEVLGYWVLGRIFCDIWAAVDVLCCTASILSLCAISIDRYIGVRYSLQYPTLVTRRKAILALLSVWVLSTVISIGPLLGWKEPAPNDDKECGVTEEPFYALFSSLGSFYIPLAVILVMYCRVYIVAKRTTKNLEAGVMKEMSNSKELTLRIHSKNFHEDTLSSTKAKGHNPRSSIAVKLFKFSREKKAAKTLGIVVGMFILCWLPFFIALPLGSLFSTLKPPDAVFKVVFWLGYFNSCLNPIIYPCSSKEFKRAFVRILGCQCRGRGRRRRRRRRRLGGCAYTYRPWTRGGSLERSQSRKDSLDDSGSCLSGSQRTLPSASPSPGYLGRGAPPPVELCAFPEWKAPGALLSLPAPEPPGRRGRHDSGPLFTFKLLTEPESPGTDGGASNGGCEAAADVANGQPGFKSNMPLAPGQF
Procedure: as §1
The entire coding region of a1B (1563 bp), including 200 base pairs and 5' untranslated sequence (5' UT) and 600 bp of 3' untranslated sequence (3' UT), was cloned into the EcoRI site of pCEXV-3 eukaryotic expression vector. The construct involved ligating the full-length containing EcoRI brainstem cDNA fragment from λ ZapII into the expression vector. Stable cell lines were selected as described above. The cell line used herein was designated L-α1B and was deposited with the American Type Culture Collection, 12301 Parklawn Drive, Rockville, Md. 20852, U.S.A. under the provisions of the Budapest Treaty for the International Recognition of the Deposit of Microorganisms for the Purposes of Patent Procedure. The cell line L-α1B was accorded ATCC Accession No. CRL 11139, on Sep. 25, 1992.
as §2

| Molecule | Ki [1] [nM] | Ki [2] [nM] | hα1D pKi [1] | hα1B pKi [2] |
| --- | --- | --- | --- | --- |
| COCC1=C(C(=O)OC)C(c2ccc(F)c(F)c2)N(C(=O)NCCN[C@H]2CC[C@H](c3ccccn3)CC2)C(=O)N1 (single isomer, unassigned; (+)) [Example 7, (+)-trans-6-(3,4-Difluorophenyl)-1-{N-[2-(4-(2-pyridyl)-cyclohexylamino)ethyl]}carboxamido-5-methoxycarbonyl-4-methoxymethyl-2-oxo-1,2,3,6-tetrahydropyrimidine hydrochloride] | 3890 | 1120 | – | – |
| COCC1=C(C(=O)OC)C(c2ccc(F)c(F)c2)N(C(=O)NCCN[C@H]2CC[C@](C#N)(c3ccccc3)CC2)C(=O)N1 (single isomer, unassigned; (+)) [Example 4, (+)-cis-6-(3,4-Difluorophenyl)-1-{N-[2-(4-cyano-4-phenyl-cyclohexylamino)ethyl]}carboxamido-5-methoxycarbonyl-4-methoxymethyl-2-oxo-1,2,3,6-tetrahydropyrimidine hydrochloride] | 100 | 18.6 | – | – |
| CCC1=C(C(N)=O)C(c2ccc(F)cc2F)N(C(=O)NCCN[C@H]2CC[C@](C#N)(c3ccccc3)CC2)C(=O)N1 (single isomer, unassigned; (+)) [Example 3, (+)-cis-5-Carboxamido-6-(2,4-difluorophenyl)-1-{N-[2-(4-cyano-4-phenyl-cyclohexylamino)ethyl]}carboxamido-4-ethyl-2-oxo-1,2,3,6-tetrahydropyrimidine hydrochloride] | 240 | 100 | – | – |
| COCC1=C(C(=O)OC)C(c2ccc(F)c(F)c2)N(C(=O)NCCN[C@H]2CC[C@@](C#N)(c3ccccc3)CC2)C(=O)N1 (single isomer, unassigned; (+)) [Example 5, (+)-trans-6-(3,4-Difluorophenyl)-1-{N-[2-(4-cyano-4-phenyl-cyclohexylamino)ethyl]}carboxamido-5-methoxycarbonyl-4-methoxymethyl-2-oxo-1,2,3,6-tetrahydropyrimidine hydrochloride] | 123 | 26.9 | – | – |
| cis-6-(3,4,5-Trifluorophenyl)-1-{N-[2-(4-cyano-4-phenyl-cyclohexylamino)ethyl]}-carboxamido-5-acetyl-4-methoxymethyl-2-oxo-1,2,3,6-tetrahydropyrimidine hydrochloride [Example 2] | – | – | 7.05 | 7.76 |

Results, then the molecule that gave them:

| Ki [1] [nM] | Ki [2] [nM] | hα1D pKi [1] | hα1B pKi [2] | Molecule |
| --- | --- | --- | --- | --- |
| 51.3 | 13.5 | – | – | COC(=O)C1=C(C)NC(=O)N(C(=O)NCCN[C@H]2CC[C@](C#N)(c3ccccc3F)CC2)C1c1ccc(F)c(F)c1 (single isomer, unassigned; (+)) [Example 13, (+)-cis-6-(3,4-Difluorophenyl)-1-{N-[2-(4-cyano-4-(2-fluorophenyl)-cyclohexylamino)ethyl]}carboxamido-5-methoxycarbonyl-4-methyl-2-oxo-1,2,3,6-tetrahydropyrimidine hydrochloride] |
| 126 | 27.5 | – | – | COCC1=C(C(=O)OC)C(c2ccc(F)c(F)c2)N(C(=O)NCCN[C@H]2CC[C@](C(=O)OC)(c3ccccc3)CC2)C(=O)N1 (single isomer, unassigned; (+)) [Example 11, (+)-cis-6-(3,4-Difluorophenyl)-1-{N-[2-(4-methoxycarbonyl-4-phenyl-cyclohexylamino)ethyl]}carboxamido-5-methoxycarbonyl-4-methoxymethyl-2-oxo-1,2,3,6-tetrahydropyrimidine hydrochloride] |
| 1100 | 282 | – | – | COCC1=C(C(=O)OC)C(c2ccc(F)c(F)c2)N(C(=O)NCCN[C@H]2CC[C@](C#N)(c3ccccn3)CC2)C(=O)N1 (single isomer, unassigned; (+)) [Example 14, (+)-cis-6-(3,4-Difluorophenyl)-1-{N-[2-(4-cyano-4-(2-pyridyl)-cyclohexylamino)ethyl]}carboxamido-5-methoxycarbonyl-4-methoxymethyl-2-oxo-1,2,3,6-tetrahydropyrimidine hydrochloride] |
